Data from patent CN117899087A, “与g蛋白偶联型雌激素受体结合的治疗乳腺癌的中药提取物及其应用” (Wuxi Hospital of Traditional Chinese Medicine, priority 2024, dated 2024).
Entries after “also recorded” stand apart in the source; their conditions may differ.

Key:
[1] = tested on: triple-negative breast cancer MDA-MB-231 cells [三阴性乳腺癌MDA-MB-231细胞]; assay: MTT assay of MDA-MB-231 cell proliferation; assay type: cell-based; settings: MDA-MB-231, 24 h
[2] = molecular target: T1, GPER target protein [GPER靶蛋白] (Homo sapiens, UniProt Q99527); assay: Cellular thermal shift analysis (CESTA) with Western blot; assay type: binding; settings: 10 μM, 24 h, GPER overexpressing HEK-293T
T1 construct: expressed in transfected cells; host or cells: 293T (HEK-293T), lentiviral recombinant plasmid system

[3] = molecular target: T2, GPER-1 overexpressing 293T cells [GPER-1过表达细胞, 293T细胞系] (Homo sapiens, UniProt Q99527); assay: UPLC-QTOF/MS screening of CGD components binding to GPER-1 overexpressing cells; settings: GPER gene overexpressing cell line
T2 construct: expressed in transfected cells; host or cells: 293T (HEK-293T), lentiviral recombinant plasmid system

[4] = tested on: retinoid X receptor [类视黄醇X受体]; settings: cited from earlier work
GPER = GPER (Homo sapiens, UniProt Q99527); assay: GPER activity (conclusion, no separate method); assay type: biochemical
Chain of GPER (Q99527 whole entry, species assumed): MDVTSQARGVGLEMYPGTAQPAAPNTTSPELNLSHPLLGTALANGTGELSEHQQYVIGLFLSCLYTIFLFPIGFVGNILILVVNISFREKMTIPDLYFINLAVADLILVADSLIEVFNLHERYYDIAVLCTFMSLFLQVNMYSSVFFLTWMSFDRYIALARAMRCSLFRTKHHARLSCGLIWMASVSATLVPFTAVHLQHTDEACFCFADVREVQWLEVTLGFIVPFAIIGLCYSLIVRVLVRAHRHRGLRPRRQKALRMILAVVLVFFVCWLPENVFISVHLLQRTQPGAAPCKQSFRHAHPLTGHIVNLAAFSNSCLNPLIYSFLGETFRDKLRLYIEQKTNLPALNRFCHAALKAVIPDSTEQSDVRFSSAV

T1 sequence (Q99527 whole entry): as the sequence (Q99527 whole entry, species assumed) above
T2 sequence (Q99527 whole entry): as the sequence (Q99527 whole entry, species assumed) above

CC(C)=CCC[C@@H](C(=O)O)[C@H]1[C@H](O)C[C@@]2(C)C3=CC[C@H]4C(C)(C)[C@@H](O)CC[C@]4(C)C3=CC[C@]12C [16α-羟基松苓新酸, 16α-Hydroxydehydrotrametenolic acid]
inhibition of triple-negative breast cancer cell proliferation at 10 μmol/L ([1]; 10 μmol/L): 具有抑制三阴乳腺癌细胞增殖的能力
inhibition of cancer cell proliferation at 40 μmol/L ([1]; 40 μmol/L): 接近最大抑制能力
inhibition of triple-negative breast cancer cell proliferation ([1]; 0.5-100 μmol/L, Fig. 4): 具有显著的抑制三阴乳腺癌细胞增殖的能力
inhibition at 40 μmol/L compared with 100 μmol/L ([1]; 40 vs 100 μmol/L): 和100μmol/L浓度相当
concentration dependence of cancer cell inhibition ([1]; increasing concentration from 10 μmol/L): 抑制癌细胞的能力随浓度增高而增加
binding ability to GPER (CESTA) [2]: 与GPER具有较强的结合能力; also recorded: 结合能力尤为突出
abundance of GPER target protein after heating vs vehicle ([2]; 55 to 70°C): 丰度高于用载体处理的蛋白质的丰度
stability of target protein ([2]; 55 to 70°C): 增加了靶蛋白的稳定性; also recorded: 能促进GPER靶蛋白的热稳定
binding to GPER overexpressing cell line [3]: 能与GPER基因过表达细胞系相结合
agonism at retinoid X receptor [4]: 天然选择性激动剂
GPER activity (GPER): 提高GPER活性
